pIC50: −log10 of the molar value. Read-outs that look alike come from different tables or passages of the source. Numbered stars: 1 amine (or outer) side, 2 acyl side, 3 side chain; on linkers, the order of the positions; unused ones are H or OH. Bridge positions count the residues as written; N and C are the ends. Square brackets hold non-standard residues; d marks the D form. Peptide text beside a SMILES is read from it. * marks the point of attachment. Trp(6-Br) = N[C@@H](Cc1c[nH]c2cc(Br)ccc12)C(=O)O; Propanoyl(3-(4-Cl-Ph)) = O=C(CCc1ccc(Cl)cc1)*; X9 = O=C([C@@H]1C(O)CCN1[*:1])[*:2]; X20 = O=C(c1cc(-c2ccncc2)n[nH]1)*; hArg = N=C(N)NCCCC[C@H](N)C(=O)O; X28 = COc1cc(OCCCC(=O)*)ccc1CO; X11 = O=C(CCCOc1ccc(Br)cc1)*; X7 = CCc1ccc(OCCCC(=O)*)cc1; X27 = O=C(CCCN1CCOCC1)*; Pentanoyl = CCCCC(=O)*; X23 = NC(=O)NCCC(=O)*
Legend:
[1] = target: T1, PCSK9Δhelix (Homo sapiens, UniProt Q8NBP7); assay: PCSK9Δhelix/Ab20 TR-FRET binding assay; conditions: TR-FRET, read-out: PCSK9Δhelix/Ab20 IC50
T1 construct: Human PCSK9 construct M1-Q692 with an engineered TEV site (residue deletion Y166, R167); made in house; host or cells: CHO
Description: (§1) The former was based on a TF-FRET assay to measure the association of the EGF(A) domain of the LDLR to PCSK9 (“PCSK9/EGF(A) binding assay”) whilst the latter was based on a TR-FRET assay to measure binding of Ab20 to PCSK9Δhelix (“PCSK9Δhelix/Ab20 binding assay”).
(§2) The ability of compounds to inhibit binding to PCSK9 was evaluated with a panel of time-resolved fluorescence resonance energy transfer (TR-FRET) binding assays. […] The PCSK9Δhelix/Ab20 binding assay evaluated the ability of compounds to compete with Ab20 for binding to the N-terminal groove region in a His-tagged, PCSK9Δhelix construct. […] Signal generation in the PCSK9 binding assays was dependent upon the binding interaction to bring into close proximity the His-tag on the PCSK9 and the Fc-tag on the ligand. Anti-His-APC was bound to the His-tag, and anti-Fc-europium was bound to the Fc-tag. When these two antibodies were in close proximity and were irradiated with light at 340 nm, the europium was excited and emitted energy at 615 nm. This energy was taken up by the APC and was emitted as light at 665 nm. Compounds that competed with the ligand reduced the energy transfer and thus the emission at 665 nm. In the His-EGFA-Fc molecule in the counterscreen, the two tags were always in close proximity, thus any reduction in emission at 665 nm was due to interference with the detection system.
(§3) Compounds were solubilized and dilutions were prepared in DMSO. […] The plate was centrifuged to mix the well contents and allowed to incubate for 30 min. […] The TR-FRET signal was read on a ViewLux reader (PerkinElmer) with excitation at 340 nm and emission at 615 and 665 nm with a 50-μs time delay between excitation and measurement of emission. The TR-FRET ratio was calculated as the fluorescence emission at 665 nm divided by the fluorescence emission at 615 nm. The normalized TR-FRET ratios were plotted as a function of the compound concentrations, and the IC50 values were determined using a 4-parameter logistic regression.
(§4) In black 1536-well assay plates (MaKO, Aurora® Microplates, Whitefish, Mont.), 40 nL of peptide in DMSO were preincubated with 2 μL His-tagged PCSK9 plus anti-His-allophycocyanin in assay buffer (50 mM Tris-HCl, pH 7.5, 150 mM NaCl, 2 mM CaCl2, 0.01% Tween®-20, 0.1% bovine gamma globulins, and protease inhibitor cocktail) for 30 min. Then 2 μL of Fc-tagged ligand and anti-Fc-europium in assay buffer were added and allowed to incubate for 2 h.

[2] = system: His-EGF(A)-Fc; assay: His-EGF(A)-Fc TR-FRET counterscreen
Description: as §1, §2, §3, §4

[3] = target: PCSK9 (Homo sapiens, UniProt Q8NBP7); assay: PCSK9/EGF(A) TR-FRET binding assay; conditions: TR-FRET; Table 8E, additional compounds; read-out: PCSK9/EGF(A) IC50
[4] = TR-FRET counterscreen, Table 8E, additional compounds

PCSK9, sequence (Q8NBP7 153-692): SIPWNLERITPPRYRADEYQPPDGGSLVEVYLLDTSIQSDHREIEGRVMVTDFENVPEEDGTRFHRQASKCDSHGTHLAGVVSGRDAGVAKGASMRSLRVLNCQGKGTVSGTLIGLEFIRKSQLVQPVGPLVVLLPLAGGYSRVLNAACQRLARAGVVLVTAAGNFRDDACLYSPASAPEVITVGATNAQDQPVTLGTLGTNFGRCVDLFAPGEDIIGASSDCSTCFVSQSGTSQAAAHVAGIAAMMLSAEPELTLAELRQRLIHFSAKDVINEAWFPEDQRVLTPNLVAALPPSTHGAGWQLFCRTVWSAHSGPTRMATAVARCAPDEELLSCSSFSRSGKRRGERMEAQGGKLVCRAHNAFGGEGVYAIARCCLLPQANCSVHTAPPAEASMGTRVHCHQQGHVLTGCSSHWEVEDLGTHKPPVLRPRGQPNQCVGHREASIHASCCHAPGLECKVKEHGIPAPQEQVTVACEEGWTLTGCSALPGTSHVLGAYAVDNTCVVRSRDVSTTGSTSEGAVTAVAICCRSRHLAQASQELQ
PCSK9, sequence (Q8NBP7 31-152 partner limits assumed): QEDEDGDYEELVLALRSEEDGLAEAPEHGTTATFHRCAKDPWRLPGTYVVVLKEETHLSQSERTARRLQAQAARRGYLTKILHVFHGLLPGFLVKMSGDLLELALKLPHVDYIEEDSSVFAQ
T1 sequence (Q8NBP7 with tags, fused parts or gaps limits assumed): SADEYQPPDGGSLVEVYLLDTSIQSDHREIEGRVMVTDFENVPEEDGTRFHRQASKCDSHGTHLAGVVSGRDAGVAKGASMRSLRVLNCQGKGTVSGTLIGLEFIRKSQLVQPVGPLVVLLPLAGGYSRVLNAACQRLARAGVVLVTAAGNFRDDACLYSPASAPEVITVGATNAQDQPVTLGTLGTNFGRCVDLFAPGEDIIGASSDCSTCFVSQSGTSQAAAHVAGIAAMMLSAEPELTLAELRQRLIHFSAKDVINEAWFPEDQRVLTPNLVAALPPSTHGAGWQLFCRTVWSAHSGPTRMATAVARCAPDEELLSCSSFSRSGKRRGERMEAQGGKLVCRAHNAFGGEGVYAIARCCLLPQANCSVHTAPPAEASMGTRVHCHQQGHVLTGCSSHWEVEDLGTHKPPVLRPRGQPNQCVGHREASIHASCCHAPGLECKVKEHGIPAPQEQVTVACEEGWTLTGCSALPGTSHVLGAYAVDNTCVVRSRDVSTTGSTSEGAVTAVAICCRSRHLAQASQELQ
T1 sequence (Q8NBP7 31-152 partner limits assumed): as the sequence (Q8NBP7 31-152 partner limits assumed) above

SMILES | pIC50 ([1]; Table 8E, additional compounds) | pIC50 [3] | also measured
CC[C@H](C)[C@H](NC(=O)[C@H](CCCNC(=N)N)NC(=O)[C@H](CCCCN)NC(=O)[C@H](CC(C)C)NC(=O)[C@H](CC(N)=O)NC(=O)[C@H](Cc1c[nH]c2ccccc12)NC(=O)[C@H](C)NC(=O)CCCCCNC(=O)[C@@H](NC(=O)[C@H](Cc1c[nH]c2ccccc12)NC(=O)[C@H](CC(=O)O)NC(=O)[C@H](CC(C)C)NC(=O)[C@H](Cc1ccc(O)cc1)NC(=O)[C@H](CCC(=O)O)NC(=O)[C@H](CCC(=O)O)NC(=O)[C@H](Cc1c[nH]c2ccccc12)NC(=O)[C@H](CO)NC(=O)[C@@H](NC(=O)[C@H](Cc1ccccc1)NC(=O)[C@@H](NC(=O)[C@@H](NC(C)=O)[C@@H](C)O)C(C)C)[C@@H](C)O)C(C)C)C(=O)NCC(=O)N[C@@H](CO)C(N)=O [Compound 91] |  |  | pIC50 ([1]; Example 7): 8.00; pIC50 ([2]; counterscreen, Example 7): < 4.30
CCCCC(=O)N[C@@H](Cc1c[nH]c2cc(Br)ccc12)C(=O)N[C@@H](CC(N)=O)C(=O)N[C@@H](CC(C)C)C(=O)N[C@H](C(=O)N[C@@H](CCCNC(=N)N)C(=O)N[C@H](C(=O)NCC(=O)N[C@@H](CC(C)C)C(=O)N[C@H](C(=O)N[C@@H](CCCNC(=N)N)C(N)=O)[C@@H](C)O)[C@@H](C)CC)C(C)C [Compound 187] (Pentanoyl-[Trp(6-Br)]NLVRIGLTR-NH2) |  |  | pIC50 [2, 4]: 4.42
CC(=O)N[C@H](C(=O)N[C@H](C(=O)N[C@@H](Cc1ccccc1)C(=O)N[C@H](C(=O)N[C@@H](CO)C(=O)N[C@@H](Cc1c[nH]c2ccccc12)C(=O)N[C@@H](CCC(=O)O)C(=O)N[C@@H](CCC(=O)O)C(=O)N[C@@H](Cc1ccc(O)cc1)C(=O)N[C@@H](CC(C)C)C(=O)N[C@@H](CC(=O)O)C(=O)N[C@@H](Cc1c[nH]c2ccccc12)C(=O)N[C@H](C(=O)NCC(=O)N[C@@H](CO)C(=O)NCC(=O)N[C@H]1CSSC[C@@H](C(N)=O)NC(=O)CNC(=O)[C@H](CCC(N)=O)NC(=O)[C@H](CO)NC(=O)CNC(=O)[C@H](C(C)C)NC(=O)[C@H](CCCNC(=N)N)NC(=O)[C@H](CCCCN)NC(=O)[C@H](CC(C)C)NC(=O)[C@H](CC(N)=O)NC(=O)[C@H](Cc2c[nH]c3ccccc23)NC1=O)C(C)C)[C@@H](C)O)C(C)C)[C@@H](C)O [Compound 12] (Ac-TVFTSWEEYLDWVGSGCWNLKRVGSQGC-NH2; disulfide 17-28) |  |  | pIC50 ([2]; counterscreen, Example 7): < 4.30
CC[C@H](C)[C@@H]1NC(=O)[C@H](CCCNC(=N)N)NC(=O)[C@H](CCC(N)=O)NC(=O)[C@H](CC(C)C)NC(=O)[C@H](CC(N)=O)NC(=O)[C@H](Cc2c[nH]c3ccccc23)NC(=O)[C@@H]2C(O)CCN2C(=O)[C@H]([C@@H](C)CC)NC(=O)[C@H](Cc2ccccc2)NC(=O)[C@@H](NC(=O)CNC(=O)[C@H](CO)NC(C)=O)CSSC[C@@H](C(N)=O)NC(=O)[C@H](CC(C)C)NC(=O)[C@H](CC(C)C)NC(=O)CNC1=O (stereo partly shown) [Compound 242] (Ac-SGCFI[X9]WNLQRIGLLC-NH2; disulfide 3-16) |  |  | pIC50 [2, 4]: ≤ 4.30
CC[C@H](C)[C@@H]1NC(=O)[C@H](CCCNC(=N)N)NC(=O)[C@H](CCC(N)=O)NC(=O)[C@H](CC(C)C)NC(=O)[C@H](CC(N)=O)NC(=O)[C@H](Cc2c[nH]c3ccccc23)NC(=O)[C@@H]2C(O)CCN2C(=O)[C@H](CC(C)C)NC(=O)[C@H](CCCNC(=N)N)NC(=O)[C@@H](NC(=O)CNC(=O)[C@H](CO)NC(C)=O)CSSC[C@@H](C(N)=O)NC(=O)[C@@H]2CCCN2C(=O)[C@H](CC(C)C)NC(=O)CNC1=O (stereo partly shown) [Compound 37] (Ac-SGCRL[X9]WNLQRIGLPC-NH2; disulfide 3-16) |  |  | pIC50 ([2]; TR-FRET counterscreen, Table 8D, * = some inhibition at highest concentrations, not sufficient to fit an IC50): < 4.30
CC[C@H](C)[C@H](NC(=O)[C@H](CCCNC(=N)N)NC(=O)[C@@H](NC(=O)[C@H](CC(C)C)NC(=O)[C@H](CC(N)=O)NC(=O)[C@H](Cc1c[nH]c2ccccc12)NC(=O)c1cc(-c2ccncc2)n[nH]1)C(C)C)C(=O)NCC(=O)N[C@@H](CC(C)C)C(=O)N[C@H](C(=O)N[C@@H](CCCNC(=N)N)C(N)=O)[C@@H](C)O [Compound 188] (X20-WNLVRIGLTR-NH2) | 5.12 | 4.66 | 
CC[C@H](C)[C@H](NC(=O)[C@H](CCCCNC(=N)N)NC(=O)[C@@H](NC(=O)[C@H](CC(C)C)NC(=O)[C@H](CC(N)=O)NC(=O)[C@H](Cc1c[nH]c2ccccc12)NC(=O)CCc1ccc(Cl)cc1)C(C)C)C(=O)NCC(=O)N[C@@H](CC(C)C)C(=O)N[C@@H](CC(C)C)C(=O)N[C@@H](CCCNC(=N)N)C(N)=O [Compound 199] ({Propanoyl(3-(4-Cl-Ph))}-WNLV[hArg]IGLLR-NH2) | 6.70 | 6.01 | 
CC[C@H](C)[C@H](NC(=O)[C@H](CCCNC(=N)N)NC(=O)[C@@H](NC(=O)[C@H](CC(C)C)NC(=O)[C@H](CC(N)=O)NC(=O)[C@H](Cc1c[nH]c2ccccc12)NC(=O)CCCN1CCOCC1)C(C)C)C(=O)NCC(=O)N[C@@H](CC(C)C)C(=O)N[C@H](C(=O)N[C@@H](CCCNC(=N)N)C(N)=O)[C@@H](C)O [Compound 162] (X27-WNLVRIGLTR-NH2) | 4.43 | ≤ 4.30 | 
CC[C@H](C)[C@H](NC(=O)[C@H](CCCCNC(=N)N)NC(=O)[C@@H](NC(=O)[C@H](CC(C)C)NC(=O)[C@H](CC(N)=O)NC(=O)[C@H](Cc1c[nH]c2ccccc12)NC(=O)CCCOc1ccc(CO)c(OC)c1)C(C)C)C(=O)NCC(=O)N[C@@H](CC(C)C)C(=O)N[C@@H](CC(C)C)C(=O)N[C@@H](CCCNC(=N)N)C(N)=O [Compound 204] (X28-WNLV[hArg]IGLLR-NH2) | 6.06 | 5.44 | 
CCc1ccc(OCCCC(=O)N[C@@H](Cc2c[nH]c3ccccc23)C(=O)N[C@@H](CC(N)=O)C(=O)N[C@@H](CC(C)C)C(=O)N[C@H](C(=O)N[C@@H](CCCCNC(=N)N)C(=O)N[C@H](C(=O)NCC(=O)N[C@@H](CC(C)C)C(=O)N[C@@H](CC(C)C)C(=O)N[C@@H](CCCNC(=N)N)C(N)=O)[C@@H](C)CC)C(C)C)cc1 [Compound 210] (X7-WNLV[hArg]IGLLR-NH2) | 6.08 | 5.52 | 
CC[C@H](C)[C@H](NC(=O)[C@H](CCCCNC(=N)N)NC(=O)[C@@H](NC(=O)[C@H](CC(C)C)NC(=O)[C@H](CC(N)=O)NC(=O)[C@H](Cc1c[nH]c2ccccc12)NC(=O)CCCOc1ccc(Br)cc1)C(C)C)C(=O)NCC(=O)N[C@@H](CC(C)C)C(=O)N[C@@H](CC(C)C)C(=O)N[C@@H](CCCNC(=N)N)C(N)=O [Compound 206] (X11-WNLV[hArg]IGLLR-NH2) | 6.06 | 5.74 | 
CC[C@H](C)[C@H](NC(=O)[C@H](CCCNC(=N)N)NC(=O)[C@@H](NC(=O)[C@H](CC(C)C)NC(=O)[C@H](CC(N)=O)NC(=O)[C@H](Cc1c[nH]c2ccccc12)NC(=O)CCNC(N)=O)C(C)C)C(=O)NCC(=O)N[C@@H](CC(C)C)C(=O)N[C@@H](CC(C)C)C(=O)N[C@@H](CCCNC(=N)N)C(N)=O [Compound 141] (X23-WNLVRIGLLR-NH2) | 4.44 | ≤ 4.30 | 
CC[C@H](C)[C@H](NC(=O)[C@H](CCCCNC(=N)N)NC(=O)[C@@H](NC(=O)[C@H](CC(C)C)NC(=O)[C@H](CC(N)=O)NC(=O)[C@H](Cc1c[nH]c2ccccc12)NC(=O)CCCN1CCOCC1)C(C)C)C(=O)NCC(=O)N[C@@H](CC(C)C)C(=O)N[C@@H](CC(C)C)C(=O)N[C@@H](CCCNC(=N)N)C(N)=O [Compound 193] (X27-WNLV[hArg]IGLLR-NH2) | 5.82 | ≤ 4.30 | 

Reference: US11034725B2, “Compositions and methods for treating cardiovascular disease” (Genentech, Inc., priority 2016, dated 2021)
